Reference: ChEMBL document CHEMBL1157977, “Musidunin and musiduol, insect antifeedants from Croton jatrophoides” (2006)

Legend:
Type in all cases: functional
Pectinophora gossypiella [1] = test: Antifeedant activity against Pectinophora gossypiella second-instar larvae assessed as drug level causing 95% protection of host plant by leaf disc assay relative to control
Pectinophora gossypiella [2] = test: Antifeedant activity against Pectinophora gossypiella second-instar larvae assessed as drug level causing 50% protection of host plant by leaf disc assay relative to control
Spodoptera frugiperda [3] = test: Antifeedant activity against Spodoptera frugiperda second-instar larvae assessed as drug level causing 50% protection of host plant by leaf disc assay relative to control
Spodoptera frugiperda [4] = test: Antifeedant activity against Spodoptera frugiperda second-instar larvae assessed as drug level causing 95% protection of host plant by leaf disc assay relative to control

| Compound | Activity (Pectinophora gossypiella [1]) [µg/mL] | Activity (Pectinophora gossypiella [2]) [µg/mL] | Activity (Spodoptera frugiperda [3]) [µg/mL] | Activity (Spodoptera frugiperda [4]) [µg/mL] |
| --- | --- | --- | --- | --- |
| COC(=O)C[C@H]1C(C)(C)O[C@@]23OCC4=C5[C@H](O)C[C@@H](c6ccoc6)[C@]5(C)[C@@H](OC(C)=O)[C@H](OC(C)=O)[C@@H]4[C@@]12CCC3=O | 10 | 3 |  |  |
| CC(=O)O[C@H]1[C@H](OC(C)=O)[C@]2(C)[C@@H](C(=O)C[C@H]2c2ccoc2)[C@]2(C)[C@H](O)C[C@H]3C(C)(C)O[C@]4(O)C(=O)CC[C@]34[C@@H]12 | 20 | 4 | 2 | 36 |
